Test [1] has as its system KKAy mouse. In words: Hypoglycemic and hypolipidemic effects using a diabetic model mouse (KKAy mouse). It is filed as in vivo. As to conditions: KKAy mice, 30 mg/kg orally once daily for four days, fifth day vs first day; for Reduction rate of a free fatty acid level / Reduction rate of a triglyceride level: plasma. The protocol:
Type II diabetic mice “KK-Ay/Ta Jci” (male, Nippon Clare, 10 weeks, five per a group) in each cage were used. In the morning of the initial day of the study, blood was collected from an orbital vein. A glucose level was determined using a new blood sugar test (Boehringer Mannheim) for a centrifuge supernatant after deproteination of the blood with perchloric acid. The blood was centrifuged to prepare a plasma. Then, a triglyceride and a free fatty acid levels in the plasma were determined using Triglyceride E-Test Wako and NEFA-C Test Wako (Wako Pure Chemicals, Inc.), respectively. […] On the fifth day of the study, a blood was collected for determination of a blood glucose level, a triglyceride level and a free fatty acid level. A group to which only 0.5% aqueous CMC solution was administered was used as a control group while a group to which pioglytazone was administered was used as a positive control. A reduction rate for a parameter in each group was calculated using the following equation.

For test [2], the target named is T1, human PPARγ receptor (Homo sapiens, UniProt P37231).
T1 construct: expressed in transfected cells; host or cells: CV-1 cells, pSG5-based Gal4-PPAR expression vector
T1 sequence (P37231 204-505): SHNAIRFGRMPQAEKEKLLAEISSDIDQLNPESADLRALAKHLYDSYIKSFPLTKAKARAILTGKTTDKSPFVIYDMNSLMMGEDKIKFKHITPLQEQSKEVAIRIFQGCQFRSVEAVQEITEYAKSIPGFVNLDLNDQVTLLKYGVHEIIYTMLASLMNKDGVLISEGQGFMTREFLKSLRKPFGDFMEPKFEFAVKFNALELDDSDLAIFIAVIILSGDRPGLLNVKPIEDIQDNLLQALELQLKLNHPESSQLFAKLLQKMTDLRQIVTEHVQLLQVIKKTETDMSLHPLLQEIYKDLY
In words: Luciferase assay using human PPARγ receptor (Gal4 chimera, CV-1 cells). Format: cell-based. To be noted: 24 h, luciferase activity of Pioglitazone at 1 μM = 100, read-out: PPARγ agonist activity, Relative activity. Here is the method: (§1) 1) Materials for a Luciferase Assay Using Human PPARα and γ
(§2) The entire procedure was conducted using a usual yeast one- or two-hybrid system according to a basic genetic engineering process.
(§3) pGL2-UAS5-TK-luc was prepared as a reporter plasmid having a response sequence of the Gal4 protein as an yeast basic transcription factor and a luciferase gene (luc) under the control by an enhancer sequence with five times repeats of UAS and the thymidine kinase (TK) promoter promoter.
(§4) A vector expressing a chimera receptor in which a ligand binding region in an intranuclear receptor human PPARα or γ receptor was fused to the […] terminus in the DNA binding region of the yeast Gal4 protein was prepared as follows. Specifically, using pSG5 (trade name, STRATAGENE, Catalogue No.216201) as a basic expression vector, the structural gene was replaced with that of a chimera receptor.
(§5) A DNA encoding the ligand binding region in human PPARα or γ receptor was inserted downstream of the DNA binding region in the Gal4 protein, i.e., the DNA encoding the 1st to 147th amino acid sequence such that the frames were aligned and it was inserted downstream of the promoter-enhancer region in pSG5 (trade name). For localizing the expressed chimera receptor in the nucleus, the DNA sequence was constructed such that a nuclear transition signal derived from SV-40T antigen, Ala Pro Lys Lys Lys Arg Lys Val Gly (SEQ ID NO. 4) was present at the amino terminus of the ligand binding region in the human PPARα or γ receptor.
(§6) As the structural gene segment for a ligand binding region in the human PPARα or γ receptor, a DNA was used which encoded:
human PPARγ ligand binding region: Ser^176-Tyr^478
which correspond to Ser^204-Tyr^506 in the human PPARγ 1 receptor and PPARγ 2 receptor and thus have the same base sequence, from structural comparison for human PPAR receptors described in R. Mukherjee et al., J. Steroid Biochem. Molec. Biol., Vol. 51, p.157 (1994); M. E. Green et al. (Gene Expression., Vol.4, p.281 (1995). For monitoring an effect on basic transcription, was also prepared an expression vector having encoding only the DNA binding region of the Gal4 protein lacking the PPAR ligand binding region, the 1st to 147th amino acid sequence and a nuclear transition signal for SV-40T-antigen.
(§7) 2) Luciferase Assay Using the Human PPARα or γ Receptor
(§8) CV-1 cells used as a host cell were cultured as usual. Specifically, a fetal calf serum (Intergen, Catalogue No.1020-90) was added to the Dulbecco modified eagle medium (DMEM) to the final concentration of 10%, and penicillin G and streptomycin sulfate were then added to the final concentrations of 50 U/mL and 50 μg/mL, respectively. In the medium, the cells were cultured at 37° C. under 5% carbon dioxide.
(§9) The day before transfection, the cells were inoculated in a 24 well plate at 1.5×10^5 cells/well in advance. LipofectAMINE (trade name, GIBCOBRL, Catalogue No.26300-61) was used for transfection. Specifically, for each well, in 40 μL of a serum-free medium Opti-MEM (trade name, GIBCOBRL, Catalogue No.31985-070) were well mixed 100 ng of a reporter plasmid, 12.5 ng of Gal4-PPAR expression vector, 200 ng of pRL-TK (trade name) as an internal control, 287.5 ng of pGEM-3Zf(+) (trade name, PROMEGA, Catalogue No. P2271) as a carrier DNA and 2.6 μL of LipofectAMINE (trade name, GIBCOBRL, Catalogue No.26300-61). To the mixture was added 170.2 μL of Opti-MEM (trade name). After washing with PBS (Phosphate Buffered Saline) and Opti-MEM (trade name), the mixture was added to the above cells. After culturing at 37° C. for 16 hours, the medium was replaced with DMEM-10% charcoal-[…] treated fetal calf serum (trade name, HyClone, Catalogue No. SH30068.03) containing a compound of this invention. After culturing at 37° C. for 24 hours, the cells were lysed and determined for its luciferase activity as usual.

The target of test [3] is T2, human PPARα receptor (Homo sapiens, UniProt Q07869).
T2 construct: and; expressed in transfected cells; host or cells: CV-1 cells, pSG5-based Gal4-PPAR expression vector
T2 sequence (Q07869 167-468): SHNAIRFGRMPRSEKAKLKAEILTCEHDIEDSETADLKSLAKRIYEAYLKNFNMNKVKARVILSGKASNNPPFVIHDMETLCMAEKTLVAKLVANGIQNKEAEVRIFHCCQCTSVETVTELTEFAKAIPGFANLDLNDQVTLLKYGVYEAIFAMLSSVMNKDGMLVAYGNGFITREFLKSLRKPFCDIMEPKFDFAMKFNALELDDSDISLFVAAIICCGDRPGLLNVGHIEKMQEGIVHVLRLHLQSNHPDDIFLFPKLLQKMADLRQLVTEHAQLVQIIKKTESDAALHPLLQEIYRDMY
Briefly: Luciferase assay using human PPARα receptor (Gal4 chimera, CV-1 cells). To be noted: 24 h, luciferase activity of Wy-14.643 at 10 μM = 100, read-out: PPARα agonist activity, Relative activity. Format: cell-based. The protocol:
as §1, §2, §3, §4, §5, §6
human PPARα ligand binding region: Ser^167-Tyr^468; and
as §7, §8, §9

Consider two molecules from patent US20030109570A1 (priority 2002, published 2003).

Each structure is given as a SMILES string.

As for `COc1cc2sc(CC(C)(Oc3ccc(C(C)C)cc3)C(=O)O)cc2c(Cl)c1OC` (stereo not drawn) [Example 4, 3-(4-chloro-5,6-dimethoxybenzothiophen-2-yl)-2-(4-isopropylphenoxy)-2-methylpropanoic Acid], the “Reduction rate of a blood glucose level” value in test [1] came to 58%. Besides, the “Reduction rate of a free fatty acid level” value in test [1] came out at 69%. The “Reduction rate of a triglyceride level” value in test [1] is given as 85%. In addition, the values for the Emax at 0.1 µM in test [2] (0.1 μM) and in test [3] (0.1 μM) were 8% and 0.3%, respectively. In addition, the Emax at 1 µM stood at 68% in test [2] (1 μM) and 2.9% in test [3] (1 μM). Moreover, the Emax at 10 µM in test [2] (10 μM) came out at 69.9%; in test [3] (10 μM), 249%.

Take `CCc1ccc(CCOc2ccc(CC3SC(=O)NC3=O)cc2)nc1` (stereo not drawn) [Pioglytazone, Pioglitazone, reference compound]: in test [1], the “Reduction rate of a blood glucose level” value was 28%, the “Reduction rate of a free fatty acid level” value is recorded as 49% and the “Reduction rate of a triglyceride level” value is on record as 60%.
